{"source": "patent US20240251783A1", "about": "“COMPOSITIONS AND METHODS FOR LUNG PRESERVATION” (University Health Network, priority 2021, published 2024)", "key": {"[1]": {"tested_on": "human pulmonary microvascular endothelial cells (HPMEC)", "test": "Cell culture model simulating hypothermic lung preservation and warm reperfusion; MTS cell viability", "type": "cell-based", "details": "42 h CIT", "experimental": "(§1) Human lung epithelial (BEAS-2B) cells or human pulmonary microvascular endothelial cells (HPMEC) were cultured to confluence at 37° C., 5% CO2 in DMEM (Gibco; Waltham MA) with 10% of fetal bovine serum (FBS, Gibco), or in M199 medium (Thermo Scientific, Waltham MA) with 20% of FBS, respectively. After cells reached confluence, medium was replaced with different testing solutions, and cells were switched to a chamber at 4° C. with 50% O2 to simulate hypothermic lung preservation. After different periods of cold ischemic time (CIT), cells were switched back to DMEM+10% FBS or M199+20% FBS at 37° C. with 5% CO2 for 4 h to simulate reperfusion. Cell morphology was recorded with phase contrast microscopy.\n(§2) CellTiter 96® AQueous One Solution Cell Proliferation Assay (MTS) was used to determine effects of different solutions on cell viabilities. Cells were seeded in 96-well plates at 15,000 cells/100 μl/well, and incubated with serum containing culture medium as described above, at 37° C./5% CO2 overnight. After switching to different preservation solutions for various periods of CIT, and followed by 3 h simulated reperfusion, and then 20 μl of CellTiter 96@ AQueousOne Solution (Promega; Madison, WI) was added to each well. After additional 1 h incubation, optical density of each well was measured using a plate reader (Biotek Instrument Inc., Winooski, VT) set to 490 nm."}, "[2]": {"tested_on": "Human lung epithelial (BEAS-2B) cells", "test": "Cell culture model simulating hypothermic lung preservation and warm reperfusion; MTS cell viability and phase contrast morphology", "type": "cell-based", "details": "42 h CIT", "experimental": "as §1, §2"}}, "data": [{"substance": "dextran 40", "values": [{"measurement": "effect of addition of dextran 40 on cell viability", "setting": "[1]; 50 mg/ml added to M199(p)", "value": "further significantly improved cell viability"}, {"measurement": "effect of addition of dextran 40 on cell viability", "setting": "[1]; 50 mg/ml added to RPMI-1640(p)", "value": "not further enhanced"}, {"measurement": "effect of addition of dextran 40 on cell viability", "setting": "[2]; 50 mg/ml added to M199(p)", "value": "further significantly improved cell viability"}, {"measurement": "effect of addition of dextran 40 on cell viability", "setting": "[2]; 50 mg/ml added to RPMI-1640(p)", "value": "not further enhanced"}]}]}
